Patent US9320276B2, “N-hetarylmethyl pyrazolylcarboxamides” (BAYER INTELLECTUAL PROPERTY GMBH, priority 2010, dated 2016)

tested on: not listed separately; experiment: logP by HPLC on reversed-phase column (EEC Directive 79/831 Annex V.A8); assay type: physicochemical; details: HPLC on reversed-phase column (C 18), 40° C., 0.1% aqueous formic acid and acetonitrile, linear gradient 10% to 90% acetonitrile
Description: In table 1, the logP values were determined in accordance with EEC Directive 79/831 Annex V.A8 by HPLC (High Performance Liquid Chromatography) on a reversed-phase column (C 18), using the method described below: Temperature: 40° C.; Mobile phases: 0.1% aqueous formic acid and acetonitrile; linear gradient from 10% acetonitrile to 90% acetonitrile. Calibration was carried out using unbranched alkan-2-ones (comprising 3 to 16 carbon atoms) with known logP values (determination of the logP values by the retention times using linear interpolation between two successive alkanones). lambda-max-values were determined using UV-spectra from 200 nm to 400 nm and the peak values of the chromatographic signals.

Row | logP | SMILES
1 | 3.21 | Cn1nc(C(F)F)c(C(=O)N(Cc2cc3ccccc3o2)C2CC2)c1Cl [Example 72]
2 | 2.58 | CN(Cc1nc(-c2ccccc2)no1)C(=O)c1c(C(F)F)nn(C)c1F [Example 114]
3 | 3.31 | Cn1nc(C(F)F)c(C(=O)N(Cc2cccc3ccsc23)C2CC2)c1Cl [Example 94]
4 | 3.83 | Cn1nc(C(F)F)c(C(=O)N(Cc2csc3ccc(Cl)cc23)C2CC2)c1Cl [Example 144]
5 | 4.44 | CC(c1csc2ccccc12)N(C(=S)c1c(C(F)F)nn(C)c1F)C1CC1 (racemic) [Example 86]
6 | 2.73 | Cn1nc(C(F)F)c(C(=O)N(Cc2cnc(Cl)cc2Cl)C2CC2)c1F [Example 118]
7 | 2.75 | CN(Cc1cc(CC(C)(C)C)no1)C(=O)c1c(C(F)F)nn(C)c1F [Example 105]
8 | 3.11 | CN(Cc1cc(-c2cc(F)c(F)c(F)c2)no1)C(=O)c1c(C(F)F)nn(C)c1F [Example 164]
9 | 2.05 | CCN(Cc1nonc1C)C(=O)c1c(C(F)F)nn(C)c1F [Example 28]
10 | 2.92 | Cn1nc(C(F)F)c(C(=O)N(Cc2cc(-c3ccccc3)no2)C2CC2)c1F [Example 111]
11 | 2.25 | Cn1nc(C(F)F)c(C(=O)N(Cc2ccc(Cl)nc2)C2CC2)c1F [Example 67]
12 | 3.21 | Cc1cc(C(C)N(C(=O)c2c(C(F)F)nn(C)c2F)C2CC2)c(C)o1 (stereo not shown) [Example 35]
13 | 2.52 | CN(Cc1cscc1Br)C(=O)c1c(C(F)F)nn(C)c1F [Example 133]
14 | 3.46 | CSc1ncc(C(C(C)C)N(C)C(=O)c2c(C(F)F)nn(C)c2F)c(C(F)(F)F)n1 (stereo not shown) [Example 157]
15 | 2.92 | Cn1nc(C(F)F)c(C(=O)N(Cc2cc(Cl)nc3ccccc23)C2CC2)c1F [Example 138]
16 | 3.59 | Cn1nc(C(F)F)c(C(=O)N(Cc2cc(-c3ccc(Cl)cc3)no2)C2CC2)c1Cl [Example 154]
17 | 3.74 | Cc1c(CN(C(=O)c2c(C(F)F)nn(C)c2Cl)C2CC2)sc2ccccc12 [Example 123]
18 | 3.41 | Cn1nc(C(F)F)c(C(=O)N(Cc2csc3ccccc23)C2CC2)c1Cl [Example 89]
19 | 1.76 | Cn1nc(C(F)F)c(C(=O)N(Cc2cccnc2)C2CCCCCC2)c1Cl [Example 15]
20 | 3.58 | Cn1nc(C(F)F)c(C(=O)N(Cc2cc(C(F)(F)F)nc3ccccc23)C2CC2)c1F [Example 159]
21 | 2.73 | Cn1nc(C(F)F)c(C(=O)NC2CCCc3sccc32)c1F (stereo not shown) [Example 104]
22 | 2.77 | Cc1nc(-c2ccccc2)sc1CN(C)C(=O)c1c(C(F)F)nn(C)c1F [Example 149]
23 | 3.13 | CC(NC(=O)c1c(C(F)F)nn(C)c1Cl)c1cc2ccccc2s1 (racemic) [Example 81]
24 | 2.32 | Cc1ccoc1CN(C)C(=O)c1c(C(F)F)nn(C)c1Cl [Example 21]
25 | 2.64 | Cn1nc(C(F)F)c(C(=O)N(Cc2c(Cl)cncc2Cl)C2CC2)c1Cl [Example 116]
26 | 2.73 | Cn1nc(C(F)F)c(C(=O)NCc2csc3ccccc23)c1F [Example 88]
27 | 2.17 | CN(Cc1ccc2nsnc2c1)C(=O)c1c(C(F)F)nn(C)c1F [Example 100]

tested on: Alternaria solani; experiment: in vivo preventive test on Alternaria solani (tomato); details: 500 ppm of active ingredient, evaluated 7 days after inoculation
Description: Solvent: 49 parts by weight of N,N-dimethylformamide Emulsifier: 1 part by weight of Alkylarylpolyglycolether To produce a suitable preparation of active compound, 1 part by weight of active compound is mixed with the stated amounts of solvent and emulsifier, and the concentrate is diluted with water to the desired concentration. To test for preventive activity, young plants are sprayed with the preparation of active compound at the stated rate of application. One day after this treatment, the plants are inoculated with an aqueous spore suspension of Alternaria solani. The plants remain for one day in an incubation cabinet at approximately 22° C. and a relative atmospheric humidity of 100%. Then the plants are placed in an incubation cabinet at approximately 20° C. and a relative atmospheric humidity of 96%. The test is evaluated 7 days after the inoculation. 0% means an efficacy which corresponds to that of the untreated control while an efficacy of 100% means that no disease is observed.

Row | SMILES | Efficacy [%]
28 | CN(Cc1nc(-c2ccccc2)no1)C(=O)c1c(C(F)F)nn(C)c1F [Example 114] | 95
29 | Cn1nc(C(F)F)c(C(=O)N(Cc2cccc3ccsc23)C2CC2)c1Cl [Example 94] | 95
30 | CC(c1csc2ccccc12)N(C(=S)c1c(C(F)F)nn(C)c1F)C1CC1 (racemic) [Example 86] | 70
31 | Cn1nc(C(F)F)c(C(=O)N(Cc2cnc(Cl)cc2Cl)C2CC2)c1F [Example 118] | 95
32 | CN(Cc1cc(CC(C)(C)C)no1)C(=O)c1c(C(F)F)nn(C)c1F [Example 105] | 95
33 | CCN(Cc1nonc1C)C(=O)c1c(C(F)F)nn(C)c1F [Example 28] | 90
34 | Cn1nc(C(F)F)c(C(=O)N(Cc2cc(-c3ccccc3)no2)C2CC2)c1F [Example 111] | 95
35 | Cn1nc(C(F)F)c(C(=O)N(Cc2ccc(Cl)nc2)C2CC2)c1F [Example 67] | 95
36 | CN(Cc1cscc1Br)C(=O)c1c(C(F)F)nn(C)c1F [Example 133] | 70
37 | CSc1ncc(C(C(C)C)N(C)C(=O)c2c(C(F)F)nn(C)c2F)c(C(F)(F)F)n1 (stereo not shown) [Example 157] | 70
38 | Cn1nc(C(F)F)c(C(=O)N(Cc2csc3ccccc23)C2CC2)c1Cl [Example 89] | 80
39 | Cn1nc(C(F)F)c(C(=O)NC2CCCc3sccc32)c1F (stereo not shown) [Example 104] | 94
40 | Cc1nc(-c2ccccc2)sc1CN(C)C(=O)c1c(C(F)F)nn(C)c1F [Example 149] | 80
41 | CC(NC(=O)c1c(C(F)F)nn(C)c1Cl)c1cc2ccccc2s1 (racemic) [Example 81] | 100
42 | Cn1nc(C(F)F)c(C(=O)N(Cc2c(Cl)cncc2Cl)C2CC2)c1Cl [Example 116] | 90
43 | Cn1nc(C(F)F)c(C(=O)NCc2csc3ccccc23)c1F [Example 88] | 78
44 | CN(Cc1ccc2nsnc2c1)C(=O)c1c(C(F)F)nn(C)c1F [Example 100] | 95

tested on: Pyrenophora teres; experiment: in vivo preventive test on Pyrenophora teres (barley); details: 500 ppm of active ingredient, evaluated 7-9 days after inoculation
Description: Solvent: 49 parts by weight of N,N-dimethylformamide Emulsifier: 1 part by weight of alkylaryl polyglycol ether To produce a suitable preparation of active compound, 1 part by weight of active compound is mixed with the stated amounts of solvent and emulsifier, and the concentrate is diluted with water to the desired concentration. To test for preventive activity, young plants are sprayed with the preparation of active compound at the stated rate of application. One day after this treatment, the plants are inoculated with an aqueous spore suspension of Pyrenophora teres. The plants remain for 48 hours in an incubation cabinet at 22° C. and a relative atmospheric humidity of 100%. Then the plants are placed in a greenhouse at a temperature of approximately 20° C. and a relative atmospheric humidity of approximately 80%. The test is evaluated 7-9 days after the inoculation. 0% means an efficacy which corresponds to that of the untreated control while an efficacy of 100% means that no disease is observed.

Row | SMILES | Efficacy [%]
45 | Cn1nc(C(F)F)c(C(=O)N(Cc2cc3ccccc3o2)C2CC2)c1Cl [Example 72] | 90
46 | CN(Cc1nc(-c2ccccc2)no1)C(=O)c1c(C(F)F)nn(C)c1F [Example 114] | 95
47 | Cn1nc(C(F)F)c(C(=O)N(Cc2cccc3ccsc23)C2CC2)c1Cl [Example 94] | 95
48 | Cn1nc(C(F)F)c(C(=O)N(Cc2csc3ccc(Cl)cc23)C2CC2)c1Cl [Example 144] | 100
49 | CC(c1csc2ccccc12)N(C(=S)c1c(C(F)F)nn(C)c1F)C1CC1 (racemic) [Example 86] | 100
50 | Cn1nc(C(F)F)c(C(=O)N(Cc2cnc(Cl)cc2Cl)C2CC2)c1F [Example 118] | 100
51 | CN(Cc1cc(CC(C)(C)C)no1)C(=O)c1c(C(F)F)nn(C)c1F [Example 105] | 100
52 | CN(Cc1cc(-c2cc(F)c(F)c(F)c2)no1)C(=O)c1c(C(F)F)nn(C)c1F [Example 164] | 100
53 | Cn1nc(C(F)F)c(C(=O)N(Cc2cc(-c3ccccc3)no2)C2CC2)c1F [Example 111] | 100
54 | Cn1nc(C(F)F)c(C(=O)N(Cc2ccc(Cl)nc2)C2CC2)c1F [Example 67] | 90
55 | Cc1cc(C(C)N(C(=O)c2c(C(F)F)nn(C)c2F)C2CC2)c(C)o1 (stereo not shown) [Example 35] | 100
56 | CN(Cc1cscc1Br)C(=O)c1c(C(F)F)nn(C)c1F [Example 133] | 90
57 | CSc1ncc(C(C(C)C)N(C)C(=O)c2c(C(F)F)nn(C)c2F)c(C(F)(F)F)n1 (stereo not shown) [Example 157] | 90
58 | Cn1nc(C(F)F)c(C(=O)N(Cc2cc(Cl)nc3ccccc23)C2CC2)c1F [Example 138] | 100
59 | Cn1nc(C(F)F)c(C(=O)N(Cc2cc(-c3ccc(Cl)cc3)no2)C2CC2)c1Cl [Example 154] | 100
60 | Cc1c(CN(C(=O)c2c(C(F)F)nn(C)c2Cl)C2CC2)sc2ccccc12 [Example 123] | 90
61 | Cn1nc(C(F)F)c(C(=O)N(Cc2csc3ccccc23)C2CC2)c1Cl [Example 89] | 95
62 | Cn1nc(C(F)F)c(C(=O)N(Cc2cccnc2)C2CCCCCC2)c1Cl [Example 15] | 75
63 | Cn1nc(C(F)F)c(C(=O)N(Cc2cc(C(F)(F)F)nc3ccccc23)C2CC2)c1F [Example 159] | 100
64 | Cc1nc(-c2ccccc2)sc1CN(C)C(=O)c1c(C(F)F)nn(C)c1F [Example 149] | 80
65 | CC(NC(=O)c1c(C(F)F)nn(C)c1Cl)c1cc2ccccc2s1 (racemic) [Example 81] | 90
66 | Cc1ccoc1CN(C)C(=O)c1c(C(F)F)nn(C)c1Cl [Example 21] | 80
67 | Cn1nc(C(F)F)c(C(=O)N(Cc2c(Cl)cncc2Cl)C2CC2)c1Cl [Example 116] | 95
